Assay results: patent publication US20030211547A1 (priority 2002, published 2003)
Read-outs that look alike come from different tables or passages of the source.

What was measured:
C. elegans [1] = tested on: C. elegans
Excerpt: (§1) Based on studies of other known mutants in C. elegans, hypersensitivity to aldicarb may indicate an increase in synaptic transmission of acetylcholine compared with wild-type animals.

C. elegans [2] = tested on: C. elegans; remark: listed apart in the source
Excerpt: The F2 population was screened to identify animals that were homozygous for recessive mutations or heterozygous for dominant mutations that alter sensitivity to the effects of ethanol on locomotion. Wild-type C. elegans normally move with a sinusoid pattern of locomotion, but when exposed to high concentrations of ethanol, they display extreme, reversible (after the removal of ethanol) uncoordination and paralysis. Animals that are resistant to the effects of ethanol display the sinusoid pattern of locomotion even in the presence of high concentrations of ethanol. To identify the mutants, animals of the F2 generation were washed from their plates into 1.5 ml tubes, rinsed free of bacteria and incubated in a solution of 400 mM ethanol for 30-50 min. The worms were then transferred to the center of 100 mm petri plates that held media containing 400 mM ethanol and a circle of E. coli (OP50) bacteria on the periphery of the media. […] Animals that moved to the bacteria quickly and with a wild-type pattern of locomotion were identified as ethanol-resistant candidates.
The slo-1 gene is expressed in most, if not all neurons, and in body wall muscle but not in pharyngeal muscle. […] BK4.1 has the slo-1 cdNA fused with the promoter from the C. elegans body muscle myosin (myo-3) gene, which is expressed exclusively in body muscle. We transformed animals homozygous for a known null mutation of slo-1(js118) with each of these DNA constructs separately where the concentration of the BK3.1 or BK4.1 constructs was 20 ng/μ1 in the injection solution. So that we could identify transformed progeny of the injected animals we coinjected a DNA construct that expresses the green fluorescent protein (GFP) in neurons with BK3.1 and a construct that expresses GFP in body muscle with BK4.1. In this way we could examine the progeny of the injected animals under a UV microscope and any animals showing GFP fluorescence have been transformed with the injected DNA. If transformed animals are picked to individual plates and their progeny examined for the presence of GFP, only the animals that are germ-line transformants will have progeny expressing GFP.
(§2) To rule out the possibility of hyperactivity contributing to the resistance seen in slo-1, we compared the level of resistance caused by mutations in slo-1 with the resistance induced by mutations in other regulators of neuron activity including loss-of-function mutations in dgk-1 and goa-1 and a gain-of-function mutation in egl-30. Each of these mutants appears phenotypically hyperactive with increased amplitude of body bends and hyperactive egg laying. […] When SLO-1 is absent the ethanol […] in the nervous system and its effects are greatly minimized.

C. elegans [3] = tested on: C. elegans; remark: listed apart in the source
Excerpt: These mutants were examined for the effect of ethanol on two behaviors other than locomotion: egg laying and pharyngeal pumping. […] Unlike wild-type worms, the egg-laying behavior of BZ6, BZ7 and BZ73 worms was unaffected by high doses of ethanol.
as §2

C. elegans [4] = assay: Aldicarb sensitivity (paralysis) of C. elegans; assay type: in vivo
Excerpt: as §1

BK channels = BK channels (Homo sapiens, UniProt Q12791); conditions: cited from earlier work
Sequence of BK channels (Q12791 whole entry): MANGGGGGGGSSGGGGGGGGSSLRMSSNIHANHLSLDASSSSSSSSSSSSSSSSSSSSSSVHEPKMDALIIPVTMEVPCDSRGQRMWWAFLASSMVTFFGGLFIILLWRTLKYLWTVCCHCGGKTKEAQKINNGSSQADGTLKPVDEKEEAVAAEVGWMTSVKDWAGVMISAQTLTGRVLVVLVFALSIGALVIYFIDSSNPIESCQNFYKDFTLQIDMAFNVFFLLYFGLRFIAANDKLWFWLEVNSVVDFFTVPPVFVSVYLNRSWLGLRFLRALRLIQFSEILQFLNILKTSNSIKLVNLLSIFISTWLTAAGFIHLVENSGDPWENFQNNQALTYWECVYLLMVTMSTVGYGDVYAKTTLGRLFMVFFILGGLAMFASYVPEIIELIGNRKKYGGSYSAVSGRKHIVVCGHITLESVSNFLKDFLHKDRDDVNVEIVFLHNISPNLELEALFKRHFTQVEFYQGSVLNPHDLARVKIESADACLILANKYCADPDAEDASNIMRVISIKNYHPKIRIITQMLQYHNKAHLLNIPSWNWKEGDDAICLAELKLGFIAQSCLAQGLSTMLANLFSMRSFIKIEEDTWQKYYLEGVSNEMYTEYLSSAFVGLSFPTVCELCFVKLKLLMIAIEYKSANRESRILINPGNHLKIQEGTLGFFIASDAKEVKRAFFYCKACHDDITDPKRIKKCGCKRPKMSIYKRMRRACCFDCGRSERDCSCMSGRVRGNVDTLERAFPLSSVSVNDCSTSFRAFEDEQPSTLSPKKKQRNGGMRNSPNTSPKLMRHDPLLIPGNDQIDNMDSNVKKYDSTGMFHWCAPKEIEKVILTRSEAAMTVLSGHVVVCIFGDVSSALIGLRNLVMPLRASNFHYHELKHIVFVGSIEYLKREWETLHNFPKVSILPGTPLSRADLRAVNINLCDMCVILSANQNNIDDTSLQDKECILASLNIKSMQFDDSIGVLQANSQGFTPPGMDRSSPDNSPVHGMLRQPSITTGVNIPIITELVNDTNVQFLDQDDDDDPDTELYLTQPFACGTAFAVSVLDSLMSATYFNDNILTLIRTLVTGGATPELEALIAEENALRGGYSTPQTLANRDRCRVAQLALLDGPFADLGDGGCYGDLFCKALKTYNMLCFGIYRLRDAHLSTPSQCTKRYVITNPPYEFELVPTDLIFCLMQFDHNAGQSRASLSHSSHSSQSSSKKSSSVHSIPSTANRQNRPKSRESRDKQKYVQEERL

For `c1ccc([C@H]2CN3CCSC3=N2)cc1` [levamisole], the response to levamisole (C. elegans [1]; BZ6, BZ7 and BZ73, 60-100 μM) was “wild-type response” and the response to levamisole (C. elegans [1]; BZ8) was “hypersensitive”.

`CCO` [ethanol] showed a decrease in speed (C. elegans [2]; dgk-1(sy428)) of 40%, a decrease in speed (C. elegans [2]; egl-30(js126gf)) of 40% and a decrease in speed (C. elegans [2]; slo-1(js118) animals carrying a BK3.1 transgene (SLO-1 only in neurons)) of 70%. For the same compound, the decrease in speed (C. elegans [2]; slo-1(js118) animals carrying a BK4.1 transgene (SLO-1 only in body muscle)) was “little or no decrease in speed”, the decrease in speed (C. elegans [2]; slo-1(js118) animals, intoxicating doses of ethanol) was “no decrease in speed” and the decrease in speed (C. elegans [2]; three slo-1 mutations js118, eg6 and eg73, ethanol dose giving 60% decrease in wild-type) was “no decrease in speed”. For the same compound, the effect on locomotion (C. elegans [2]; wild-type animals, 400 mM ethanol) was “severe uncoordination and lethargy”, the decrease in speed (C. elegans [2]; wild-type animals, intoxicating doses of ethanol) was 60% and the effect on egg-laying (C. elegans [3]; BZ6, BZ7 and BZ73 worms, high doses of ethanol) was “unaffected”. The effect on egg-laying (C. elegans [3]; BZ6, BZ7 and BZ73 worms, low doses (e.g. 50-100 mM exogenous concentration)) was “lay more eggs than wild-type worms”, the effect on egg-laying (C. elegans [3]; BZ8, high doses of ethanol) was “did not display this ethanol-resistance” and the “decrease in egg laying” value (C. elegans [3]; egl-30(js126)) was 72%. For the same compound, the “decrease in egg laying” value (C. elegans [3]; goa-1(n1134)) was 80%, the “decrease in egg laying” value (C. elegans [3]; slo-1(eg24)) was 12% and the “decrease in egg laying rate” value (C. elegans [3]; slo-1(eg142)) was “no decrease in egg laying rate”. For the same compound, the effect on egg-laying (C. elegans [3]; wild-type C. elegans, high doses (e.g. 400 mM exogenous concentration)) was “almost completely suppress egg-laying” and the “decrease in egg laying” value (C. elegans [3]; wild-type strain) was 96%.

With `CNC(=O)O/N=C/C(C)(C)SC` [aldicarb] the “concentrations of aldicarb at which paralysis is displayed” value (C. elegans [4]; ethanol-resistant mutants (BZ6, BZ7, BZ8, BZ73)) was 0.1 to 0.25 mM and the effect of aldicarb (C. elegans [4]; wild-type animals, 0.1-0.25 mM) was “only mildly affect”.

For “Iberiotoxin (QFTDVDCSVSKECWSVCKDLFGVDRGKCMGKKCRCYQ; UniProt P24663 1-37, looked up)”, the “effective concentration as blocker of BK channels” value (BK channels) is listed as “about 10 nM”.
